Consider three compounds from article PMC5656322, “BAK1 is involved in AtRALF1-induced inhibition of root cell expansion” (PLoS Genetics, 2017).

The test system of test [1] is Arabidopsis seedlings, primary root. The test can be described thus: Root growth inhibition assay, vertical plates. The format is in vivo, Arabidopsis thaliana. The conditions noted are these: bak1 mutants, 0.1 μM, 8 days. The procedure:
(§1) (A) and (B) Arabidopsis seedlings (2 days old) were treated with 10 μM AtRALF1 or water (H20) for 2 days. The values are the mean ± SD of at least 25 seedlings. Triple asterisks indicate P < 0.01 (Student’s t test); ns, not significant. (C) Four-day-old seedlings were transferred to media containing different concentrations of AtRALF1, and the primary root length was measured after 8 days of treatment. The data represent the mean value ± SD of 30 seedlings. […] Representative Arabidopsis seedlings after 8 days of treatment with AtRALF1 are shown below. Seedlings were arranged on plates after the treatment for imaging. Scale bars, 1 cm. (D) Two-day-old seedlings were treated with 10 μM AtRALF1 or water for 2 days, and root cell length was measured after 2 days of treatment. Cells from the root endodermis in the differentiation zone were measured. The values are the mean ± SD of approximately 150 cells. Triple asterisks indicate P < 0.01 (Student’s t test); ns, not significant.
Aliquots of 1 ml of medium containing seeds were distributed into 24-well plates. The peptides (10 μM) were added after 2 days, and the root length was measured 2 days after treatment. To maximize root growth, the seeds were germinated in vertical plates. […] The root length was measured 8 days after treatment unless stated otherwise. Control plants were grown under identical conditions in a peptide-free medium. Quantitative data were obtained as previously described. […] The data from one representative experiment are shown. For cell length measurements, AtRALF1 peptide (10 μM) was added after 2 days of germination, and the cell length was measured after 2 days of treatment. The cell wall was stained with a 1 mg ml^-1 propidium iodide solution (Sigma) in the dark for 15 min and washed twice with water. Cells of the endodermis of the root differentiation zone were imaged and measured using confocal microscopy (Olympus FV1000). Approximately 30 plants from each genetic background and at least 5 cells per root were measured. The wavelengths for excitation and emission were 555 and 655 nm, respectively. Image processing was completed using the Olympus FluoView software.
Supplementary file pgen.1007053.s004.pdf: S4 Fig Analyses of root growth of Arabidopsis seedlings treated with AtRALF1 peptide for 8 days and evaluated daily. Four-day-old seedlings were transferred to media containing different concentrations of AtRALF1, and the primary root length was measured daily during the 8 days of treatment. Genotypes Wt, bak1-1, bak1-3 and bak1-4 are indicated on top of each series of graphics. The seedlings were treated with 0, 0.5, 1, 5 and 10 μM AtRALF1. The data represent the mean values ± SD of 30 seedlings. Double and triple asterisks indicate P < 0.05 and P <0.01, respectively (Student’s t test); ns, not significant. (PDF) Click here for additional data file.
Four-day-old seedlings were transferred to medium containing 10 μM AtRALF1, and the primary root length was measured after 8 days of treatment. The data represent the mean value ± SD of 20 seedlings. Triple asterisks indicate P < 0.01 (Student’s t test); ns, not significant. Representative Arabidopsis seedlings after 8 days of treatment with AtRALF1 are shown. The seedlings were arranged on plates after the treatment for imaging. Scale bars, 1 cm. (PDF) Click here for additional data file.
Four-day-old seedlings were transferred to medium containing 0.1 μM BAP, and the primary root length was measured after 8 days of treatment. The data represent the mean value ± SD of 10 seedlings.

For test [2] the test system is unchanged. The test is described as follows: Root growth inhibition assay, liquid medium, 24-well plates. It counts as in vivo, Arabidopsis thaliana. Particulars: 10 μM, 2 days; bak1-1, bak1-3 and bak1-4 mutants. The method, then:
as §1
Aliquots of 1 ml of medium containing seeds were distributed into 24-well plates. The peptides (10 μM) were added after 2 days, and the root length was measured 2 days after treatment. To maximize root growth, the seeds were germinated in vertical plates. […] The root length was measured 8 days after treatment unless stated otherwise. Control plants were grown under identical conditions in a peptide-free medium. Quantitative data were obtained as previously described. The experiments were repeated at least 3 times using independent biological replicates with similar results. The data from one representative experiment are shown. For cell length measurements, AtRALF1 peptide (10 μM) was added after 2 days of germination, and the cell length was measured after 2 days of treatment. The cell wall was stained with a 1 mg ml^-1 propidium iodide solution (Sigma) in the dark for 15 min and washed twice with water. Cells of the endodermis of the root differentiation zone were imaged and measured using confocal microscopy (Olympus FV1000). Approximately 30 plants from each genetic background and at least 5 cells per root were measured. The wavelengths for excitation and emission were 555 and 655 nm, respectively. Image processing was completed using the Olympus FluoView software.
Arabidopsis seedlings (2-days-old) were treated with 10 μM AtRALF1 or water (H20) for 2 days. The values are the mean ± SD of at least 25 seedlings. Triple asterisks indicate P < 0.01 (Student’s t test); ns, not significant. (PDF) Click here for additional data file.
Supplementary file pgen.1007053.s002.pdf: S2 Fig Loss-of-function bak1 mutants are sensitive to the inhibitory activity of AtRALF23/34 on root growth. Arabidopsis seedlings (2-day-old) were treated with 10 μM RALF1(9–49), RALF1(I6A), AtRALF1, AtRALF23 and AtRALF34 or water (H20) for 2 days. The values are the mean ± SD of at least 20 seedlings. […] (PDF) Click here for additional data file.

The test system is the same in test [3]. Particulars: wild-type Arabidopsis; ref [5]; cited from earlier work. The method, then: To better understand the role of AtRALF1 and BRs in regulating cell expansion, we exposed different mutants and transgenic Arabidopsis plants with altered BR signaling pathways to the peptide hormone AtRALF1 at concentrations that inhibit root growth. Loss-of-function mutants (bri1-301, bsk3-2 and bak1-4), gain-of-function mutants (sud1, bes1-D and bzr1-D) and two overexpressor lines (BRI OX and DWF4 OX) were used in the root growth assays in the presence or absence of 10 μM AtRALF1 (Fig 1A).

Another test has as its system cell suspensions. The conditions noted are these: ref [5]; cited from earlier work.
The test system of test [4] is microsomal fractions from the roots of Arabidopsis. The test is described as follows: Binding assay with acridinium-labeled AtRALF1, microsomal fractions. More on the design: species or system Arabidopsis thaliana. The procedure: (§2) (A) Whole seedlings (5 days old) were treated for 15 min with acriAtRALF1 (acriR1), acriR1 and an excess of unlabeled AtRALF34 (R34), RALF1(9–49) [(R-9-49)], or AtRALF1 (R1), as indicated. The values are the mean ± SD of two measurements (5 seedlings each). (B) Microsomal fractions from wild-type and bak1 mutants were incubated for 15 min with acriAtRALF1 (acriR1), with acriR1 and an excess of unlabeled RALF1(9–49) [(R-9-49)], or with AtRALF1 (R1), as indicated. The values are the mean ± SD of two measurements. The proportions of labeled: unlabeled proteins are shown in parentheses. Single and triple asterisks indicate P < 0.1 and P < 0.01 (Student’s t test).
(§3) Arabidopsis seedlings were grown for 5 days on vertical plates. Roots were homogenized in extraction buffer [300 mM sucrose, 100 mM Tris-HCl pH 7.5, 25 mM EDTA, 25 mM NaF, 1 mM Na2MoO4, 1 mM PMSF and protease inhibitor cocktail (Roche), adjusted to pH 6.2], and the homogenate was spun at 2,000 x g for 10 min at 4 °C. The supernatant was recovered and centrifuged at 100,000 x g for 50 min at 4 °C to precipitate the microsomal pellet. The pellet was resuspended in the extraction buffer plus 0.5% Triton-X. Seedlings or microsomal fractions were placed in 200 μl of medium and incubated with 7 nM acridinium-labeled peptide (acriAtRALF1 or acriAtRALF34) and different concentrations of AtRALF1, AtRALF34 or RALF1(9–49) for 15–20 min at 4 °C on a shaker. After incubation, the seedlings or microsomal fractions were washed three times with the same medium. Unless indicated otherwise, five entire seedlings and approximately 10 ng of microsomal fractions were used per treatment. The resulting luminescence emissions from the acridinium were measured using a microplate reader (Biotec ELx 800) at 2 s after injecting 50 μl of a solution containing 20 mM H2O2 in 0.1 M NaOH. These experiments were repeated at least three times using independent biological replicates. Duplicates were used for each concentration or treatment. The data shown are from one representative experiment.

In test [5] the test system is cytosolic Ca^2+ in Arabidopsis seedlings. The test can be described thus: Ca^2+ mobilization assay (apoaequorin luminescence). The conditions noted are these: acriAtRALF1 vs unlabeled AtRALF1, apoaequorin seedlings (S17A Fig). It counts as in vivo, Arabidopsis thaliana. The method, then:
The cytoplasmic Ca^2+ assay was performed in Arabidopsis seedlings as described previously. Changes in Ca^2+ levels were measured using an Arabidopsis line homozygous for the single insertion of a transgene encoding a cytoplasmically expressed apoaequorin protein driven by the constitutive promoter 35S [53], here denoted Wt-aeq. Wt-aeq plants were crossed with bak1-3 mutants, and T3 generation plants overexpressing apoaequorin and containing a T-DNA insertion in the BAK1 gene, named bak1-3-aeq, were selected and evaluated using semi-quantitative RT-PCR with specific primers (S1 Table). Arabidopsis seedlings were grown in plates for 4 days. A single seedling was transferred into each well of a 96-well white microplate (Thermo Labsystems) containing 200 μl of medium supplemented with […] coelenterazine cp (Biotium) and incubated in the dark at 24 °C for 16 h. Each well containing a single seedling received recombinant AtRALF1 or acridinium-labeled AtRALF1 at a final concentration of 5, 10 or 100 nM as indicated. The resulting luminescence emission was monitored using a microplate reader (Biotec ELx 800) and 20 time-points for approximately 160 s. The experiments were repeated at least three times using independent biological replicates. The data shown are from one representative experiment.

Test [6] concerns intact Arabidopsis seedlings. The test can be described thus: Binding assay with acridinium-labeled AtRALF1, intact seedlings. Set-up: species or system Arabidopsis thaliana. Particulars: for reduction of total acriAtRALF1 binding vs wild-type: 7 nM, 4 °C. The method, then:
as §2, §3
Supplementary file pgen.1007053.s017.pdf: S17 Fig Analyses of acridinium-labeled AtRALF1 (acriAtRALF1) and binding of acriAtRALF1 in bak1-4 and fer4 mutants. (A) The Ca^2+ mobilization assay comparing the acriAtRALF1 activity with the AtRALF1 peptide. A total of 20 time-points per treatment were measured over 160 sec and summed. The results are the means ± SD of two measurements. (B) acriAtRALF1 binding in whole seedlings and only in roots of Arabidopsis. The roots were excised just before measurements. Ctr, seedlings treated with unlabeled AtRALF1. (C) Whole seedlings (5 days old) were treated for 20 min with acriAtRALF1 (acriR1), acriR1 and an excess of unlabeled AtRALF1 (R1), as indicated. The values are the mean ± SD of three measurements (5 seedlings each). The proportions of labeled: unlabeled proteins are shown in parentheses. Triple asterisks indicates P < 0.001 (Student’s t test). (PDF) Click here for additional data file.
Supplementary file pgen.1007053.s018.pdf: S18 Fig Binding of acridinium-labeled AtRALF1 and AtRALF34 to intact Arabidopsis seedlings. (A) bak7 seedlings (5 days old) were treated for 15 min with acriAtRALF1 (acriR1), acriR1 and an excess of unlabeled AtRALF1 (R1), as indicated. (B) bak1 seedlings (5 days old) were treated for 15 min with acriAtRALF34 (acriR34), acriR34 and an excess of unlabeled AtRALF34 (R34) or AtRALF1 (R1), as indicated. The proportions of labeled: unlabeled proteins are shown in parentheses. The values are the mean ± SD of two measurements (5 seedlings each). (PDF) Click here for additional data file.

Where two headings read alike, the source gives them in different places. Where no end group is shown, it is not given here. acridinium ester = acridinium ester label conjugated to the N-terminus of the peptide

For `c1ccc(CNc2ncnc3nc[nH]c23)cc1` [6-benzylaminopurine (BAP), 6-benzylaminopurine, reference compound], in test [1], the root growth inhibition result was “capable of inhibiting the root growth of bak1 mutants”.
On to “AtRALF23: Arabidopsis RALF isoform (ATRRYISYGALRRNTIPCSRRGASYYNCRRGAQANPYSRGCSAITRCRRS; ends and bridges not checked; cysteine pairing not given here; UniProt Q9LUS7 89-138, looked up) [reference compound]”, for which the figures for the “primary root growth inhibition” value in test [2] and in test [3] were “inhibited the primary root growth” and “inhibits the primary root growth of wild-type Arabidopsis plants”, respectively. In addition, in the test on cell suspensions, the “alkalinization of the extracellular medium” value is “alkalinizes the extracellular medium of cell suspensions”.
For “acriAtRALF1: acridinium-labeled AtRALF1; acridinium ester conjugated to the N-terminal of the peptide ({acridinium ester}-ATTKYISYQSLKRNSVPCSRRGASYYNCQNGAQANPYSRGCSKIARCRS; ends and bridges not checked)”, the “nature of acriAtRALF1 binding” value in test [4] (microsomal fractions) was “specific and saturable”. Moreover, the “reduction of total acriAtRALF1 binding vs wild-type” value in test [4] (microsomal fractions of bak1 mutants, 7 nM, 4 °C) is given as “approximately 15%”; in test [6] (bak1-1 seedlings, 15 min) it was 30%; in test [6] (bak1-3 seedlings, 15 min) it was 29%; in test [6] (bak1-4 seedlings, 15 min) it was 31%. For the same compound, the “increase in cytoplasmic Ca^2+” value in test [5] is given as “induced an increase in cytoplasmic Ca^2+”. The “reduction of total acriAtRALF1 binding, wild-type vs bak7” value in test [6] (bak7 mutants, 15 min) is “no differences in the reduction of total binding between wild-type and bak7 mutants were observed”. In addition, in test [6] (fer4 mutants, 20 min (S17C Fig)), the “reduction of total acriAtRALF1 binding” value is “approximately 48%”. In addition, the “source of acriAtRALF1 chemiluminescent signal” value in test [6] (whole seedlings vs only roots (S17B Fig)) was “the roots were the only source of the chemiluminescent signal”.
